Measured values as given in paper PMC11487390, “Design and Synthesis of 1,3-Diarylpyrazoles and Investigation of Their Cytotoxicity and Antiparasitic Profile” (International Journal of Molecular Sciences, 2024).
Where a name gives a salt, the structure may show the parent alone. Read-outs that look alike come from different tables or passages of the source.

Tests used:
[1] = Cytotoxicity assay, MRC-5SV2 cells, resazurin, 3 days; type: cell-based; conditions: human, MRC-5SV2 human lung fibroblast cells, MRC-5 cells, highest concentration 64 µM
Protocol: The series of final products (13–69) was investigated in vitro on the human fetal lung fibroblast cell line MRC-5 (Table 1) to assess cytotoxicity toward normal (i.e., non-malignant) human cells. […] As explained earlier, these are important pathogens for humans or cattle (T. b. brucei) and a persistent need for new therapeutics exists for these parasites. As a part of the antiparasitic tests, cytotoxicity against primary mouse macrophages (PMMs) was also evaluated. These murine cells serve as host cells for parasites in the L. infantum assay. Therefore, the murine macrophage assay not only offers additional cytotoxicological insight but is also essential to interpreting the readout of the L. infantum assay.
(§1) The MRC-5SV2 human lung fibroblast cell line was cultured in MEM + Earle’s salts-medium, supplemented with 2 mM L-glutamine, 16.5 mM NaHCO3, and 5% inactivated fetal calf serum. For evaluating the antileishmanial activity, the L. infantum MHOM/MA(BE)/67 strain was used. This strain was maintained in a Golden hamster (Mesocricetus auratus). Amastigotes were collected from the spleen of an infected donor hamster using differential centrifugation. Primary peritoneal mouse macrophages were used as host cells and were collected 2 days after peritoneal stimulation with a 2% potato starch suspension. For the intracellular T. cruzi assays, the Tulahuen CL2 strain was used that expresses β-galactosidase. The strain was maintained in MRC-5SV2 cells in MEM medium. The T. b. brucei Squib 427 strain or T. b. rhodesiense STIB-900 strain was used for screening against the extracellular African trypanosomes. The strains were maintained in Hirumi’s Modified Iscove’s medium-9 (HMI-9), supplemented with 10% inactivated fetal calf serum. All cultures and assays were performed at 37 °C with 5% CO2.
(§2) Compound stock solutions were prepared in 100% DMSO at 20 mM. The compounds were serially pre-diluted by robotic plate production (4-fold) in DMSO followed by a further (intermediate) dilution in demineralized water to assure a final in-test DMSO concentration of <1%. Identical test plates containing 10 µL of the different concentrations of each compound were produced for the different assays. For the cytotoxicity assays, 5 concentrations per compound were tested (64–16–4–1–0.25 µM). For the parasitic assays, 10 concentrations per compound were tested, ranging from 64 µM to 0.2 nM.
Assays were performed in sterile 96-well microtiter plates, each well containing 10 µL of the watery compound dilutions together with 190 µL of MRC-5SV2 inoculum (1.5 × 10^5 cells/mL). Cell growth was compared to untreated control wells (100% cell growth) and medium-control wells (0% cell growth). After 3 days incubation, MRC-5 viability was assessed fluorimetrically after addition of 50 μL resazurin per well (final concentration of 10 µg mL^−1). After 4 h at 37 °C, fluorescence was measured (λex 550 nm, λem 590 nm). The results were expressed as % reduction in cell growth/viability compared to positive (100% growth–0% inhibition) and negative (0% growth–100% inhibition) control wells from which EC50 values (50% effective concentrations) were derived using an excel macro that calculates the interpolation of the concentrations corresponding to the flanking points, just above and just below 50% inhibition.

[2] = tested on: Trypanosoma cruzi Tulahuen CL2 strain; assay: Intracellular T. cruzi assay in MRC-5 cells (β-galactosidase/CPRG, 7 days); type: cell-based; conditions: Trypanosoma cruzi, TULAHUEN, MRC5, 168 h, intracellular in MRC-5 cells
Protocol: as §1, §2
MRC-5 cells were infected in 96-well plates using a harvested T. cruzi inoculum (4 × 10^3 MRC-5 cells/well + 4 × 10^4 parasites/well) and exposed to 10 µL of the compound dilutions (200 µL/well total volume). Parasite growth determined after 7 days of incubation and compared to untreated infected controls following the addition of the substrate CPRG (chlorophenolred ß-D-galactopyranoside): 50 µL/well of a stock solution containing 15.2 mg CPRG + 250 µL Nonidet in 100 mL PBS. The absorbance was measured spectrophotometrically at 540 nm after 4 h incubation at 37 °C and EC50 values were calculated.

[3] = tested on: L. infantum MHOM/MA(BE)/67 strain; assay: L. infantum intracellular amastigote assay in PMM (Giemsa, 5 days); type: cell-based, Leishmania infantum
Protocol: as §1, §2
Primary peritoneal mouse macrophages (PMMs) were prepared in RPMI-1640 medium, supplemented with 2 mM L-glutamine, 16.5 mM NaHCO3, and 5% inactivated fetal calf serum. The macrophages are infected after 48 h with spleen-derived L. infantum amastigotes (3 × 10^4 PMM + 4.5 × 10^5 parasites/well). The compounds were added after 2 h of infection. After 5 days incubation, parasite burdens (mean number of amastigotes/macrophage) were assessed microscopically after staining with a 10% Giemsa solution and EC50 values were calculated.

[4] = tested on: T. b. brucei Squib 427 strain; assay: T. b. brucei growth assay (resazurin, 3 days); type: cell-based, Trypanosoma brucei brucei; conditions: Trypanosoma brucei, 72 h
Protocol: as §1, §2
(§3) Parasite suspensions (1.5 × 10^4 T. b. brucei/well or 4 × 10^3 T. b. rhodesiense/well) in HMI-9 medium were exposed in a total volume of 200 µL to 10 µL of the compound dilutions Parasite growth was assessed fluorimetrically after 3 days of incubation by the addition of 50 µL resazurin per well. After 6 h (T. b. rhodesiense) or 24 h (T. b. brucei) at 37 °C, fluorescence was measured (λex 550 nm, λem 590 nm), from which viability and EC50 values could be determined.

[5] = tested on: T. b. rhodesiense STIB-900 strain; assay: T. b. rhodesiense growth assay (resazurin, 3 days); type: cell-based, Trypanosoma brucei rhodesiense; conditions: Trypanosoma brucei, RHODESIENSE, 72 h
Protocol: as §1, §2, §3

[6] = Leishmania infantum, 120 h, amastigotes in PMM, 5 days, read-out: L. inf. (EC50)
[7] = 3 days, read-out: T. b. bruc. (EC50)
[8] = 3 days, read-out: T. b. rhod. (EC50)
[9] = Leishmania infantum, 120 h, read-out: L. inf. (EC50, µM), amastigotes in PMM, 5 days
[10] = read-out: T. b. bruc. (EC50, µM), 3 days
[11] = read-out: T. b. rhod. (EC50, µM), 3 days

Structure (SMILES)	EC50 at 3 days [1] [µM]	EC50 [2] [µM]	EC50 [3, 6] [µM]	EC50 [4, 7] [µM]	EC50 [5, 8] [µM]	EC50 [3, 9] [µM]	EC50 ([3]; read-out: L. inf. (EC50), amastigotes in PMM, 5 days) [µM]	EC50 [4, 10] [µM]	EC50 [5, 11] [µM]
CNC(=O)c1cc(Oc2ccc(NCc3cn(-c4ccccc4)nc3-c3ccc4c(c3)OCO4)cc2)ccn1 [Compound 60, 4-(4-(((3-(benzo[d] [1,3]dioxol-5-yl)-1-phenyl-1H-pyrazol-4-yl)methyl)amino)phenoxy)-N-methylpicolinamide]	60.7	> 64	32.5	> 64	5.18	–	–	–	–
O=C(NCCN1CCCC1)c1cn(-c2ccccc2)nc1-c1ccc2c(c1)OCCO2 [Compound 42, 3-(2,3-dihydrobenzo[b][1,4]dioxin-6-yl)-1-phenyl-N-(2-(pyrrolidin-1-yl)ethyl)-1H-pyrazole-4-carboxamide oxalate]	28	21.7	27.3	7.15	6.43	–	–	–	–
Fc1ccc(-n2cc(COCc3cn(-c4ccccc4)nc3-c3ccc4c(c3)OCCO4)nn2)cc1 [Compound 47, 4-(((3-(2,3-dihydrobenzo[b][1,4]dioxin-6-yl)-1-phenyl-1H-pyrazol-4-yl)methoxy)methyl)-1-(4-fluorophenyl)-1H-1,2,3-triazole]	51.5	64	> 64	55.9	5.56	–	–	–	–
COc1ccc(-c2nn(-c3ccccc3)cc2CN2CCCC2)cc1 [Compound 65, 3-(4-methoxyphenyl)-1-phenyl-4-(pyrrolidin-1-ylmethyl)-1H-pyrazole oxalate]	32	28.9	33.2	6.87	6.43	–	–	–	–
Clc1ccc(Cc2cn(-c3ccccc3)nc2-c2ccc3c(c2)OCCO3)cc1 [Compound 50, 4-(4-chlorobenzyl)-3-(2,3-dihydrobenzo[b][1,4]dioxin-6-yl)-1-phenyl-1H-pyrazole]	> 64	7.53	12.7	27.2	8.52	–	–	–	–
O=C(NCCc1ccccc1)c1cn(-c2ccccc2)nc1-c1ccc2c(c1)OCCO2 [Compound 34, 3-(2,3-dihydrobenzo[b][1,4]dioxin-6-yl)-N-phenethyl-1-phenyl-1H-pyrazole-4-carboxamide]	1.54	> 64	> 64	> 64	4.74	–	–	–	–
O=C(NCc1cn(-c2ccccc2)nc1-c1ccc2c(c1)OCCO2)Nc1ccc(F)cc1 [Compound 54, 1-((3-(2,3-dihydrobenzo[b][1,4]dioxin-6-yl)-1-phenyl-1H-pyrazol-4-yl)methyl)-3-(4-fluorophenyl)urea]	> 64	> 64	> 64	> 64	> 64	–	–	–	–
FCc1cn(-c2ccccc2)nc1-c1ccc2c(c1)OCCO2 [Compound 52, 3-(2,3-dihydrobenzo[b][1,4]dioxin-6-yl)-4-(fluoromethyl)-1-phenyl-1H-pyrazole]	22.6	23.9	> 64	> 64	27.1	–	–	–	–
c1ccc(Cn2cc(COCc3cn(-c4ccccc4)nc3-c3ccc4c(c3)OCCO4)nn2)cc1 [Compound 48, 1-benzyl-4-(((3-(2,3-dihydrobenzo[b][1,4]dioxin-6-yl)-1-phenyl-1H-pyrazol-4-yl)methoxy)methyl)-1H-1,2,3-triazole]	> 64	> 64	32.5	> 64	1.78	–	–	–	–
O=C(NCCN1CCOCC1)c1cn(-c2ccccc2)nc1-c1ccc2c(c1)OCCO2 [Compound 44, 3-(2,3-dihydrobenzo[b][1,4]dioxin-6-yl)-N-(2-morpholinoethyl)-1-phenyl-1H-pyrazole-4-carboxamide hydrochloride]	> 64	64	–	–	–	9.51	8.3	> 64	19
c1ccc(-n2cc(CNCCN3CCCC3)c(-c3ccc4c(c3)OCCO4)n2)nc1 [Compound 69, N-((3-(2,3-dihydrobenzo[b][1,4]dioxin-6-yl)-1-(pyridin-2-yl)-1H-pyrazol-4-yl)methyl)-2-(pyrrolidin-1-yl)ethan-1-amine dihydrochloride]	> 64	> 64	–	–	–	> 64	–	22.7	24.8
COc1ccc(-c2nn(-c3ccccc3)cc2COCc2ccc(F)cc2)cc1 [Compound 68, 4-(((4-fluorobenzyl)oxy)methyl)-3-(4-methoxyphenyl)-1-phenyl-1H-pyrazole]	> 64	5.33	36.8	29.6	11.4	–	–	–	–
COc1ccc(-c2nn(-c3ccccc3)cc2CN2CCOCC2)cc1 [Compound 66, 4-((3-(4-methoxyphenyl)-1-phenyl-1H-pyrazol-4-yl)methyl)morpholine hydrochloride]	> 64	22.4	–	–	–	34.6	–	27.8	20.5
c1ccc(-n2cc(COCc3cn(-c4ccccc4)nc3-c3ccc4c(c3)OCCO4)nn2)cc1 [Compound 46, 4-(((3-(2,3-dihydrobenzo[b][1,4]dioxin-6-yl)-1-phenyl-1H-pyrazol-4-yl)methoxy)methyl)-1-phenyl-1H-1,2,3-triazole]	> 64	> 64	32.5	9.04	2.18	–	–	–	–
FC(F)c1cn(-c2ccccc2)nc1-c1ccc2c(c1)OCCO2 [Compound 53, 4-(difluoromethyl)-3-(2,3-dihydrobenzo[b][1,4]dioxin-6-yl)-1-phenyl-1H-pyrazole]	21.8	6.44	32.5	30.3	19	–	–	–	–
Fc1ccc(COCc2cn(-c3ccccc3)nc2-c2ccc3c(c2)OCCO3)cc1 [Compound 45, 3-(2,3-dihydrobenzo[b][1,4]dioxin-6-yl)-4-(((4-fluorobenzyl)oxy)methyl)-1-phenyl-1H-pyrazole]	> 64	5.51	22.6	27.2	7.16	–	–	–	–
